Assay results taken from US20140037620A1, “Methods of Treating Breast Cancer with Gemcitabine Therapy” (British Columbia Cancer Agency Branch, priority 2012, published 2014).
Where two headings read alike, the source gives them in different places.

Tests used:
[1] = system: women with locally advanced or metastatic breast cancer; conditions: for effect on OS / relative reduction for TTP: GD v D; for relative reduction in mortality from the addition of gemcitabine to docetaxel compared to docetaxel alone: patients with basal-like subtype (PAM50)
Description: Patients were randomly assigned to docetaxel (100 mg/m^2) day 1, every 21 days or gemcitabine (1000 mg/m^2) days 1 and 8 plus docetaxel (75 mg/m^2) day 8. Patients were either previously untreated, had prior anthracycline-based (neo)adjuvant chemotherapy or had received a single prior anthracycline-based chemotherapy regimen for metastatic breast cancer. The Danish Breast Cancer Cooperative Group (DBCG) prepared the original protocol as well as the biomarker supplement, and the Danish National Committee on Biomedical Research Ethics has approved the original protocol as well as the add-on (KF 02-045-01 and H-KF-02-045-01) before their activation. Time to progression (TTP) was the primary endpoint for the original trial as well as this biomarker sub-study (Nielsen et al., JCO 2011; 29:4748-4754). Overall survival (OS) and response rate (RR) were secondary endpoints. TTP was measured from random assignment to date of documented progression with censoring at date of last visit or of death. OS was calculated from date of random assignment to date of death with censoring for surviving patients at last visit date. Time-to-event endpoints (TTP and OS) were estimated by the Kaplan-Meier method, and PAM50 subtypes were compared using the log-rank test. Analyses of PAM50 subtypes were done unadjusted and adjusted for preselected covariates in multivariate Cox proportional hazards models. […] The adjusted model was further stratified for previous chemotherapy (Nielsen et al., JCO 2011; 29:4748-4754). The assumption of proportional hazards was assessed by Schoenfeld residuals. Analyses were done to assess whether treatment effects on TTP and OS varied according to PAM50 subtypes or the levels of preselected variables. The multivariate Cox proportional hazards model was extended by one interaction term at a time. The interaction terms were tested using the Wald test and results were given in a Forest plot. RR was evaluated for patients with measurable disease. […] RRs were compared by using Fisher's exact test.

[2] = system: women with locally advanced or metastatic breast cancer; conditions: original trial, 337 women, GD v D; cited from earlier work

For gemcitabine plus docetaxel [GD], the “gain in median overall survival, doublet arm compared to monotherapy arm” value ([1]; basal-like patients, Kaplan-Meier estimates) was 10 months, the “effect on TTP across PAM50 intrinsic subtypes” value ([1]; multivariate Cox regression, interaction test) was “TTP seemed equally improved in PAM50 intrinsic subtypes” and the “effect on OS” value ([1]; patients with HER2-enriched subtype) was “significantly worsened OS”. The “risk of TTP events and mortality in the doublet arm compared to single agent docetaxel” value ([1]; patients with HER2 amplified tumors) was “higher risk of TTP events”, the “effect on OS” value ([1]; patients with basal-like breast cancer) was “significantly improved OS” and the “effect on OS” value ([1]; patients with basal-like breast cancer, listed as gemcitabine and docetaxel) was “more substantial reduction in mortality”. For the same substance, the “relative reduction in mortality from the addition of gemcitabine to docetaxel compared to docetaxel alone” value [1] was 71%, the “relative reduction in mortality from the addition of gemcitabine to docetaxel compared to docetaxel alone” value ([1]; listed as gemcitabine plus docetaxel) was 73% and the “relative reduction for TTP” value ([1]; patients with basal-like subtype) was 63%. For the same substance, the “benefit from adding gemcitabine to docetaxel” value ([1]; patients with highly proliferative subtypes (non-luminal A)) was “No support was found for a more general benefit”, the “survival benefit compared with docetaxel monotherapy” value ([1]; patients with non-basal-like subtypes) was “no significant incremental survival benefit” and the “relative reduction for TTP” value ([1]; patients with other (non-basal-like) subtypes) was 37%. The “HR for OS, treatment effect in the original study” value [2] was 0.94 and the “HR for TTP, treatment effect in the original study” value [2] was 0.68.
